Test results: patent US10435392B2, “Bipyrazole derivatives as JAK inhibitors” (Incyte Corporation, priority 2013, dated 2019)
Where a name gives a salt, the structure may show the parent alone.

System: human JAK1
Experiment: In vitro JAK kinase assay (HTRF, phosphorylation of a biotinylated peptide), JAK1
Type: biochemical
Details: ratio of IC50 values at 1 mM ATP
Experimental: The catalytic activity of JAK1, JAK2 or JAK3 was assayed by measuring the phosphorylation of a biotinylated peptide. The phosphorylated peptide was detected by homogenous time resolved fluorescence (HTRF). […] Reactions were carried out at room temperature for 1 hour and then stopped with 20 μL 45 mM EDTA, 300 nM SA-APC, 6 nM Eu-Py20 in assay buffer (Perkin Elmer, Boston, Mass.). Binding to the Europium labeled antibody took place for 40 minutes and HTRF signal was measured on a Fusion plate reader (Perkin Elmer, Boston, Mass.).

JAK2/JAK1, >10:
Cc1[nH]ncc1-c1cnn(C2(CC#N)CN(c3cnc(C(=O)N[C@@H](C)C(F)(F)F)cn3)C2)c1 [Example 1, 5-[3-(Cyanomethyl)-3-(3′-methyl-1H,1′H-4,4′-bipyrazol-1-yl)azetidin-1-yl]-N-[(1S)-2,2,2-trifluoro-1-methylethyl]pyrazine-2-carboxamide trifluoroacetate]
Cc1n[nH]cc1-c1cnn(C2(CC#N)CN(c3cnc(C(=O)NC(C)C)cn3)C2)c1 [Example 2, 5-[3-(Cyanomethyl)-3-(3′-methyl-1H,1′H-4,4′-bipyrazol-1-yl)azetidin-1-yl]-N-isopropylpyrazine-2-carboxamide Trifluoroacetate]
Cc1n[nH]cc1-c1cnn(C2(CC#N)CN(c3ccc(C(=O)NC(C)C)cc3)C2)c1 [Example 3, 4-[3-(Cyanomethyl)-3-(3′-methyl-1H,1′H-4,4′-bipyrazol-1-yl)azetidin-1-yl]-N-isopropylbenzamide Trifluoroacetate]
C[C@H](NC(=O)c1cc(F)c(N2CC(CC#N)(n3cc(-c4cn[nH]c4)cn3)C2)cc1F)C(F)(F)F [Example 5, 4-[3-(1H,1′H-4,4′-Bipyrazol-1-yl)-3-(cyanomethyl)azetidin-1-yl]-2,5-difluoro-N-[(1S)-2,2,2-trifluoro-1-methylethyl]benzamide Trifluoroacetate]
Cc1n[nH]cc1-c1cn(C2(CC#N)CN(c3cnc(C(=O)NC(C)C)cn3)C2)nc1C [Example 6, 5-[3-(Cyanomethyl)-3-(3,3′-dimethyl-1H,1′H-4,4′-bipyrazol-1-yl)azetidin-1-yl]-N-isopropylpyrazine-2-carboxamide Trifluoroacetate]
Cc1n[nH]c(C)c1-c1cnn(C2(CC#N)CN(c3cnc(C(=O)N[C@@H](C)C(F)(F)F)cn3)C2)c1 [Example 9, 5-[3-(Cyanomethyl)-3-(3′,5′-dimethyl-1H,1′H-4,4′-bipyrazol-1-yl)azetidin-1-yl]-N-[(1S)-2,2,2-trifluoro-1-methylethyl]pyrazine-2-carboxamide Trifluoroacetate]
Cc1n[nH]cc1-c1cn(C2(CC#N)CN(c3cc(F)c(C(=O)N[C@@H](C)C(F)(F)F)cc3F)C2)nc1CO [Example 13, 4-{3-(Cyanomethyl)-3-[3-(hydroxymethyl)-3′-methyl-1H,1′H-4,4′-bipyrazol-1-yl]azetidin-1-yl}-2,5-difluoro-N-[(1S)-2,2,2-trifluoro-1-methylethyl]benzamide]
